According to ChEMBL document CHEMBL1134297, “5,6-Diphenylpyridazine derivatives as acyl-CoA:cholesterol acyltransferase inhibitors” (J Med Chem, 2001):
“And” between values parts separate entries of the source, which are not always exact repeats. Equal entries are not always repeated.

Biological target: T1, Sterol O-acyltransferase 1 (Rattus norvegicus, UniProt O70536)
T1 sequence (O70536 whole entry): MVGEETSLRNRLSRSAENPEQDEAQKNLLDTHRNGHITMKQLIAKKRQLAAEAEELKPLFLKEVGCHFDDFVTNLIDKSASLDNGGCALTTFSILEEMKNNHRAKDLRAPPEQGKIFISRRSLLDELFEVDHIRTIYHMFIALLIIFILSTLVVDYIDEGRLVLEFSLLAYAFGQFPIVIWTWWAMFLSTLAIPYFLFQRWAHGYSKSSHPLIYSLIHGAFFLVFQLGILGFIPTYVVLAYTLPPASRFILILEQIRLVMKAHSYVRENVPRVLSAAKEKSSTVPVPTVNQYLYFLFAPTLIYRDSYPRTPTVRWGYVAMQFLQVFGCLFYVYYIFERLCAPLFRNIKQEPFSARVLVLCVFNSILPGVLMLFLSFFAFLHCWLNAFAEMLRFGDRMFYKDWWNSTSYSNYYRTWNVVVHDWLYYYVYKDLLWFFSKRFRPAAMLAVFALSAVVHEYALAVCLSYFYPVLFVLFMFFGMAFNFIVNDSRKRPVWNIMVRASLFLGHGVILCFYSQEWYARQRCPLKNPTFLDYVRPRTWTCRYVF
Experiment: In vitro acyl-coenzyme A:cholesterol acyltransferase inhibition in rat liver microsomes
Design: species or system Microsome

| Structure (SMILES) | IC50 [µM] |
| --- | --- |
| CCCCCCSc1cc(-c2ccccc2)c(-c2ccccc2)nn1 | 62 |
| CCCCCCS(=O)(=O)c1cc(-c2ccccc2)c(-c2ccccc2)nn1 | 60 |
| O=C(O)CCCCCCn1nc(-c2ccccc2)c(-c2ccccc2)cc1=O | > 300 |
| CCCCCCn1nc(-c2ccccc2)c(-c2ccccc2)cc1=O | 57 |
| CCCCCCNc1cc(-c2ccccc2)c(-c2ccccc2)nn1 | 24 |
| CCCCCCCCNc1cc(-c2ccccc2)c(-c2ccccc2)nn1 | 40 |
| O=c1cc(-c2ccccc2)c(-c2ccccc2)nn1C1CCCC1 | 119 |
| CCCCCn1nc(-c2ccccc2)c(-c2ccccc2)cc1=O | 66 |
| CCCCCCCCCn1nc(-c2ccccc2)c(-c2ccccc2)cc1=O | 85 |
| CCCn1nc(-c2ccccc2)c(-c2ccccc2)cc1=O | 230 |
| O=C(O)CCCCCCCSc1cc(-c2ccccc2)c(-c2ccccc2)nn1 | > 300 |
| CCCCCOc1cc(-c2ccccc2)c(-c2ccccc2)nn1 | 73 |
| O=C(O)CCCCCCSc1cc(-c2ccccc2)c(-c2ccccc2)nn1 | > 300 |
| CCCCCCCCC[S+]([O-])c1cc(-c2ccccc2)c(-c2ccccc2)nn1 (stereo unspecified) | 87 |
| CCCCn1nc(-c2ccccc2)c(-c2ccccc2)cc1=O | 176 |
| CCCCCCCCCSc1cc(-c2ccccc2)c(-c2ccccc2)nn1 | 116 |
| CCCCCC[S+]([O-])c1cc(-c2ccccc2)c(-c2ccccc2)nn1 (stereo unspecified) | 75 |
| CCCCCCCCCOc1cc(-c2ccccc2)c(-c2ccccc2)nn1 | 180 |
| O=c1cc(-c2ccccc2)c(-c2ccccc2)nn1C1CCCCC1 | > 300 |

| Structure (SMILES) | IC50 [µM] |
| --- | --- |
| CCCCCCCNc1cc(-c2ccccc2)c(-c2ccccc2)nn1 | 55 |
| CCCCCCCCCS(=O)(=O)c1cc(-c2ccccc2)c(-c2ccccc2)nn1 | 76 |
| CCCCCCCOc1cc(-c2ccccc2)c(-c2ccccc2)nn1 | 58 |
| CCCCCCCCS(=O)(=O)c1cc(-c2ccccc2)c(-c2ccccc2)nn1 | 36 |
| CCCCCCOc1cc(-c2ccccc2)c(-c2ccccc2)nn1 | 72 |
| CC(C)n1nc(-c2ccccc2)c(-c2ccccc2)cc1=O | 152 |
| CCCCCCCCSc1cc(-c2ccccc2)c(-c2ccccc2)nn1 | 130 |
| CCCCCCCCn1nc(-c2ccccc2)c(-c2ccccc2)cc1=O | 80 |
| CCCCCCCCOc1cc(-c2ccccc2)c(-c2ccccc2)nn1 | 104 |
| O=C(O)CCCCCCCn1nc(-c2ccccc2)c(-c2ccccc2)cc1=O | > 300 |
| CCCCCCn1nc(-c2ccccc2)c(-c2ccccc2)c(C)c1=O | 56 |
| O=C(O)CCCCCCCCSc1cc(-c2ccccc2)c(-c2ccccc2)nn1 | > 300 |
| CCCCCCCC[S+]([O-])c1cc(-c2ccccc2)c(-c2ccccc2)nn1 (stereo unspecified) | 92 |
| O=C(O)CCCCCSc1cc(-c2ccccc2)c(-c2ccccc2)nn1 | > 300 |
| CCCCCCCS(=O)(=O)c1cc(-c2ccccc2)c(-c2ccccc2)nn1 | 49 |
| CCCCCCCSc1cc(-c2ccccc2)c(-c2ccccc2)nn1 | 76 |
| CCCCCCC[S+]([O-])c1cc(-c2ccccc2)c(-c2ccccc2)nn1 (stereo unspecified) | 77 |
| CCCCCCCn1nc(-c2ccccc2)c(-c2ccccc2)cc1=O | 86 |
| CCCCCC(=O)Nc1cc(-c2ccccc2)c(-c2ccccc2)nn1 | > 300 |

Test system: not listed separately
Experiment: Percent inhibition of cell viability in murine macrophages
Format: functional, Mus musculus
Design: concentration or dose not given beside the values

| Structure (SMILES) | Inhibition |
| --- | --- |
| CCCCCCCCNc1cc(-c2ccccc2)c(-c2ccccc2)nn1 | 11.5% and 9.9% and 3.7% and 4.8% |
| CCCCCCCOc1cc(-c2ccccc2)c(-c2ccccc2)nn1 | <1% |
| CCCCCCCCCNc1cc(-c2ccccc2)c(-c2ccccc2)nn1 | 5.9% and 2.7% and <1% |

Organism: Mus musculus
Experiment: Inhibition of cholesterol esterification in macrophages (Cholesterol efflux)
Format: functional

| Structure (SMILES) | Esterification inhibitory concentration |
| --- | --- |
| CCCCCCCCNc1cc(-c2ccccc2)c(-c2ccccc2)nn1 | 12.9 µM and 11.5 µM |
| CCCCCCCOc1cc(-c2ccccc2)c(-c2ccccc2)nn1 | 12.6 µM and 11.8 µM |
| CCCCCCCCCNc1cc(-c2ccccc2)c(-c2ccccc2)nn1 | 14.1 µM and 13.8 µM |

Biological target: Sterol O-acyltransferase 1 (Mus musculus) (UniProt Q61263)
Sequence (Q61263 whole entry, looked up): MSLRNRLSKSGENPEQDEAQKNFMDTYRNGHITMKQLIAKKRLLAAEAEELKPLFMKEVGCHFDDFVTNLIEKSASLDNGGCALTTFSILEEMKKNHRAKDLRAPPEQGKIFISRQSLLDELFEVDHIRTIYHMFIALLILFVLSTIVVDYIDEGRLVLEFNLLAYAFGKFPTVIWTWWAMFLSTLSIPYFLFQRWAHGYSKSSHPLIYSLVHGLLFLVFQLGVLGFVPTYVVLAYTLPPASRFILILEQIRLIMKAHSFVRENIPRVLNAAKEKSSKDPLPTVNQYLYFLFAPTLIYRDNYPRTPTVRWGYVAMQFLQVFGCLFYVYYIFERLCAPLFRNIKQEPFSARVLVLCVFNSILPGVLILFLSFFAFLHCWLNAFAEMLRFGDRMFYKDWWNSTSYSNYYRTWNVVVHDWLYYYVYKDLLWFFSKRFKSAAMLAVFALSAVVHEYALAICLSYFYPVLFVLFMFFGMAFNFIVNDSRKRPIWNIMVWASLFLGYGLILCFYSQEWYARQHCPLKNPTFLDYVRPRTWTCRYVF
Experiment: Inhibitory activity against Acyl-coenzyme A:cholesterol acyltransferase in macrophages

| Structure (SMILES) | IC50 [µM] |
| --- | --- |
| CCCCCCCCNc1cc(-c2ccccc2)c(-c2ccccc2)nn1 | 3.2 |
| CCCCCCCOc1cc(-c2ccccc2)c(-c2ccccc2)nn1 | 5.1 |
